Results: patent publication US20090192308A1, “1,5-DIHYDRO-2H-PYRROL-2-ONE TRICYCLIC DERIVATIVES HAVING ANTI-INFECTIVE ACTIVITY” (CPC BIOTECH S. r.l., priority 2008, published 2009)
Converted amounts (≈) assume the structure as drawn. “Also recorded” adds a separate entry of the source.

How the values were obtained:
[1] = system: Acinetobacter baumannii MDR; assay: agar spot / disk diffusion plate method; type: cell-based; conditions: spot 10 μl, inoculum 10^8 CFU/ml, (Io) and (Ir) 100 mM, average of three points
Experimental: (§1) The antimicrobial activity of the substances (Ii), (Il), (Im), (In), (Io), (Ip), (Iq), (Ir), (Is) was evaluated towards 11 clinically isolated Gram-negative and Gram-positive bacterial strains, mostly multi-antibiotic resistant (MDR), and towards two types of yeast of the genus Candida.
(§2) A plate method was used (agar spot method or disk diffusion assay—spot quantity 10 μl, bacterial inoculum 10^8 CFU/ml and DMSO negative control): the (Io) and (Ir) concentration used was 100 mM. The antimicrobial activity was evaluated by measuring the diameter of the microbial growth inhibition halo expressed in millimetres, the reported values being the average of three experimental points.

Candida albicans = assay: agar spot / disk diffusion plate method; type: cell-based; conditions: spot 10 μl, inoculum 10^8 CFU/ml, (Io) and (Ir) 100 mM, average of three points
Experimental: as §1, §2

Candida parapsilosis = assay: agar spot / disk diffusion plate method; type: cell-based; conditions: spot 10 μl, inoculum 10^8 CFU/ml, (Io) and (Ir) 100 mM, average of three points
Experimental: as §1, §2

Escherichia coli = assay: agar spot / disk diffusion plate method; type: cell-based; conditions: spot 10 μl, inoculum 10^8 CFU/ml, (Io) and (Ir) 100 mM, average of three points
Experimental: as §1, §2

[2] = system: Pseudomonas aeruginosa MDR; assay: agar spot / disk diffusion plate method; type: cell-based; conditions: spot 10 μl, inoculum 10^8 CFU/ml, (Io) and (Ir) 100 mM, average of three points
Experimental: as §1, §2

Salmonella spp. = assay: agar spot / disk diffusion plate method; type: cell-based; conditions: spot 10 μl, inoculum 10^8 CFU/ml, (Io) and (Ir) 100 mM, average of three points
Experimental: as §1, §2

[3] = system: Staphylococcus aureus MRSA; assay: agar spot / disk diffusion plate method; type: cell-based; conditions: spot 10 μl, inoculum 10^8 CFU/ml, (Io) and (Ir) 100 mM, average of three points
Experimental: as §1, §2

[4] = system: Staphylococcus haemolyticus MDR; assay: agar spot / disk diffusion plate method; type: cell-based; conditions: spot 10 μl, inoculum 10^8 CFU/ml, (Io) and (Ir) 100 mM, average of three points
Experimental: as §1, §2

[5] = compared with taurine and hypotaurine; cited from earlier work
[6] = in vivo biological studies, cited from earlier work
[7] = system: 11 clinically isolated Gram-negative and Gram-positive bacterial strains, mostly MDR, and two types of yeast of the genus Candida; assay: antimicrobial activity towards clinical isolates and yeasts (overall); type: cell-based; conditions: pathogens resistant to β-lactam antibiotics or multi-drug resistant, and yeasts
Experimental: as §1, §2

[8] = system: Enterococcus faecalis MDR; assay: agar spot / disk diffusion plate method; type: cell-based; conditions: spot 10 μl, inoculum 10^8 CFU/ml, (Io) and (Ir) 100 mM, average of three points
Experimental: as §1, §2

Enterococcus faecium MDR = assay: agar spot / disk diffusion plate method; type: cell-based; conditions: spot 10 μl, inoculum 10^8 CFU/ml, (Io) and (Ir) 100 mM, average of three points
Experimental: as §1, §2

Klebsiella oxytoca = assay: agar spot / disk diffusion plate method; type: cell-based; conditions: spot 10 μl, inoculum 10^8 CFU/ml, (Io) and (Ir) 100 mM, average of three points
Experimental: as §1, §2

Klebsiella pneumonite = assay: agar spot / disk diffusion plate method; type: cell-based; conditions: spot 10 μl, inoculum 10^8 CFU/ml, (Io) and (Ir) 100 mM, average of three points
Experimental: as §1, §2

Serratia marcescens = assay: agar spot / disk diffusion plate method; type: cell-based; conditions: spot 10 μl, inoculum 10^8 CFU/ml, (Io) and (Ir) 100 mM, average of three points
Experimental: as §1, §2

[9] = system: methicillin-resistant Staphylococcus aureus strain (MRSA); assay: MIC by microdilutions in broth; type: cell-based
Experimental: The minimum inhibitory concentration (MIC) of the substances (Io) and (Ir) towards the methicillin-resistant Staphylococcus aureus strain (MRSA) was then evaluated by the method of microdilutions in broth: it should be noted that Staphylococcus aureus (MRSA) is one of the main multi-resistant bacteria causing serious problems in hospitals. The measured MICs were 6.25 mmol/l and 1.56 mmol/l for (Io) and (Ir) respectively.

## O=C1C2=C(SCCN2)C2CSCCN12 (stereo not drawn) [Ia, 3,4,7,8,10,10a-hexahydro-2H,5H-pyrrolo[2,1-c:3,4-b′]bis[1,4]thiazin-5-one, reference compound]
[1]
  diameter of the microbial growth inhibition halo: 4 millimetres
Candida albicans
  diameter of the microbial growth inhibition halo: 6 millimetres
Candida parapsilosis
  diameter of the microbial growth inhibition halo: 5 millimetres
Escherichia coli
  diameter of the microbial growth inhibition halo: <2 millimetres
[2]
  diameter of the microbial growth inhibition halo: <2 millimetres
Salmonella spp.
  diameter of the microbial growth inhibition halo: 3 millimetres
[3]
  diameter of the microbial growth inhibition halo: 4 millimetres
[4]
  diameter of the microbial growth inhibition halo: <2 millimetres
[5]
  antioxidant activity (in words): strong antioxidant activity
[6]
  antioxidant properties in vivo (in words): considerable antioxidant properties
[6]; high doses
  toxicity in vivo (in words): total non-toxicity even at high doses

## O=C1C2=C(SCCN2c2ccc(-c3ccccc3)cc2)C2CSCCN12 (stereo not drawn) [Is]
[7]
  antibiotic activity (in words): have shown antibiotic activity

## CCCN1CCSC2=C1C(=O)N1CCSCC21 (stereo not drawn) [Im]
[7]
  antibiotic activity (in words): have shown antibiotic activity

## O=C1C2=C(SCCN2Cc2ccccc2)C2CSCCN12 (stereo not drawn) [Ip]
[7]
  antibiotic activity (in words): have shown antibiotic activity

## CC(C)=CCN1CCSC2=C1C(=O)N1CCSCC21 (stereo not drawn) [Io]
[1]
  diameter of the microbial growth inhibition halo: 11 millimetres
Candida albicans
  diameter of the microbial growth inhibition halo: 10 millimetres
Candida parapsilosis
  diameter of the microbial growth inhibition halo: 8 millimetres
[8]
  diameter of the microbial growth inhibition halo: 9 millimetres
Enterococcus faecium MDR
  diameter of the microbial growth inhibition halo: 8 millimetres
Escherichia coli
  diameter of the microbial growth inhibition halo: 12 millimetres
Klebsiella oxytoca
  diameter of the microbial growth inhibition halo: 8.6 millimetres
Klebsiella pneumonite
  diameter of the microbial growth inhibition halo: 10 millimetres
[2]
  diameter of the microbial growth inhibition halo: 11 millimetres
Salmonella spp.
  diameter of the microbial growth inhibition halo: 10 millimetres
Serratia marcescens
  diameter of the microbial growth inhibition halo: 7 millimetres
[3]
  diameter of the microbial growth inhibition halo: 11.4 millimetres
[4]
  diameter of the microbial growth inhibition halo: 13 millimetres
[9]
  minimum inhibitory concentration (MIC): 6.25 mM (≈ 1850 µg/mL)
[7]
  antibiotic activity (in words): have shown antibiotic activity

## CN1CCSC2=C1C(=O)N1CCSCC21 (stereo not drawn) [Ii]
[7]
  antibiotic activity (in words): have shown antibiotic activity

## CC(C)=CCC/C(C)=C/CN1CCSC2=C1C(=O)N1CCSCC21 (stereo not drawn) [Ir]
[1]
  diameter of the microbial growth inhibition halo: 13 millimetres
Candida albicans
  diameter of the microbial growth inhibition halo: 13 millimetres
Candida parapsilosis
  diameter of the microbial growth inhibition halo: 9.8 millimetres
[8]
  diameter of the microbial growth inhibition halo: 13.7 millimetres
Enterococcus faecium MDR
  diameter of the microbial growth inhibition halo: 14.3 millimetres
Escherichia coli
  diameter of the microbial growth inhibition halo: 12 millimetres
Klebsiella oxytoca
  diameter of the microbial growth inhibition halo: 9.8 millimetres
Klebsiella pneumonite
  diameter of the microbial growth inhibition halo: 11.5 millimetres
[2]
  diameter of the microbial growth inhibition halo: 12 millimetres
Salmonella spp.
  diameter of the microbial growth inhibition halo: 11 millimetres
Serratia marcescens
  diameter of the microbial growth inhibition halo: 11 millimetres
[3]
  diameter of the microbial growth inhibition halo: 18.6 millimetres
[4]
  diameter of the microbial growth inhibition halo: 15 millimetres
[9]
  minimum inhibitory concentration (MIC): 1.56 mM (≈ 569 µg/mL)
[7]
  antibiotic activity (in words): have shown antibiotic activity; also recorded: best activity characteristics for the widest spectrum; also recorded: excellent wide spectrum antibiotic activity

## O=C1C2=C(SCCN2CCc2ccccc2)C2CSCCN12 (stereo not drawn) [Iq]
[7]
  antibiotic activity (in words): have shown antibiotic activity

## CC(C)N1CCSC2=C1C(=O)N1CCSCC21 (stereo not drawn) [In]
[7]
  antibiotic activity (in words): have shown antibiotic activity

## CCN1CCSC2=C1C(=O)N1CCSCC21 (stereo not drawn) [Il]
[7]
  antibiotic activity (in words): have shown antibiotic activity
